Assay results from the METLIN SMRT retention time set (Domingo-Almenara et al. 2019).

Test: gradient 5% acetonitrile 3 min, to 50% in 2 min, to 85% in 15 min, held 3 min, 100 µL/min
Conditions: column: Zorbax Extend-C18 2.1 x 50 mm; eluents: water / acetonitrile, 0.1% formic acid
Summary of the method: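 Pure standards were run in mixtures of ~100 molecules by HPLC coupled to a quadrupole time-of-flight mass spectrometer. The column was a Zorbax Extend-C18 (2.1 × 50 mm, 1.8 μm) at 100 μL/min, with water and acetonitrile each containing 0.1% formic acid, in positive and negative ionization mode. Dead and dwell volumes were 40 μL and 900 μL. Retention time was taken from computationally picked adduct peaks, each manually inspected, with data collected over 3 months.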

| Structure (SMILES) | RP-LC retention time |
| --- | --- |
| Cc1oc(-c2ccc(OC(C)C)cc2)nc1CSc1nc2ncccc2o1 | 1100 s |
| C[C@@H]1CC[C@H]2[C@H](C)[C@H]3CC[C@@]4(O)[C@@H]5CC(=O)[C@H]6CC(=O)CC[C@]6(C)[C@H]5C[C@H]4[C@@H]3CN2C1 | 636 s |
| Cc1ccn2c(Nc3ccccc3C)c(-c3ccc(Cl)cc3)nc2c1 | 810 s |
| Cc1ccc(C)c(NC(=O)Cn2ccc3sccc3c2=O)c1 | 742 s |
| CN(C)c1ccc(C(=O)N2CCCC2c2nc(-c3ccccc3)no2)cc1 (stereo not drawn) | 986 s |
| Cc1ccccc1CNC(=O)c1cc2n(n1)CCCC2 | 811 s |
| CC1CCCC(C)N1CCCNC(=O)C1CCCN(c2ncnc3c2nc2n3CCCCC2)C1 (stereo not drawn) | 592 s |
| CCC(C(=O)NCCCN1CCOCC1)n1c2ccccc2c2cnn(C)c(=O)c21 (stereo not drawn) | 609 s |
| CCN1CCN(c2nccc(-c3cnc4nc(-c5cccnc5)nn4c3C)n2)CC1 | 574 s |
| Cc1ccc(-n2nc3c(N4CCCC(C(=O)NCCC5=CCCCC5)C4)nnc(C)c3c2C)cc1 (stereo not drawn) | 865 s |
| COc1ccc(OC)c(CCN2CC(=O)N(c3ccc(C)c(Cl)c3)[C@@H]3CS(=O)(=O)C[C@@H]32)c1 | 921 s |
| O=C(Cc1ccccc1)N1CCN(c2nc3cccnc3o2)CC1 | 686 s |
| CCCNC(=O)N1CCCN(C2=NS(=O)(=O)C(c3ccc(F)cc3)=C2C)CC1 | 861 s |
| CCCN1C(=O)C(CC(=O)NCC2CC2)Sc2ncccc21 (stereo not drawn) | 697 s |
| CC(=O)c1ccc(NC(=O)c2cc(-c3cccnc3)nc3ccccc23)cc1 | 732 s |
| CCN(CC)S(=O)(=O)c1ccc(Cl)c(-c2nnc(-c3ccccc3OC)o2)c1 | 1020 s |
| COCCCNC(=O)Cc1cn(C)c2ncccc12 | 576 s |
| Cc1nn(-c2ccc(Cl)cc2)c(C)c1S(=O)(=O)N1CCC(C(=O)NCc2cccs2)CC1 | 950 s |
| Cc1cccc(CN2CCN(CC(=O)NCc3ccc4c(c3)OCO4)C(=O)C2=O)c1 | 723 s |
| O=C(C1COc2ccccc2O1)N1CCc2cc(-c3ccno3)ccc21 (stereo not drawn) | 991 s |
| COc1ccc(CCNC(=O)C2CCN(S(C)(=O)=O)c3cc(Cl)ccc3O2)cc1 (stereo not drawn) | 889 s |
| Cn1nc(C(=O)Nc2cccc(-c3nnc4n3CCCC4)c2)c2ccccc21 | 712 s |
| COC(=O)c1c(-c2ccc(F)cc2)noc1NCCc1cccs1 | 1090 s |
| CCCC(=O)Nc1ccc(S(=O)(=O)NCC(C)(O)COC)cc1 (stereo not drawn) | 619 s |
| O=C(Cn1c(=O)cc(C(=O)N2CCCCC2)c2ccccc21)NC1CCCC1 | 697 s |
| CCCCOC(=O)c1ccc(NC(=O)c2cnc3scc(C)n3c2=O)cc1 | 1050 s |
| COc1ccccc1CNC(=O)C1CN(C(=O)c2cccs2)CC12CCCCC2 (stereo not drawn) | 912 s |
| COC(=O)C1=CN(c2cccc(Cl)c2)c2ccccc2S1(=O)=O | 879 s |

| Structure (SMILES) | RP-LC retention time |
| --- | --- |
| Cc1cc2c(cc1CNC(=O)c1ccco1)OCCCO2 | 750 s |
| O=C(Cn1cccc1-c1nc(-c2ccccc2)no1)Nc1ccc2c(c1)OCCO2 | 1090 s |
| Cc1ccc(C)c(-c2csc(Nc3ccc(F)cn3)n2)c1 | 1150 s |
| Cn1nc(C2CCCN(C(=O)Nc3ccc4c(c3)OCCO4)C2)n(C2CCCC2)c1=O (stereo not drawn) | 718 s |
| O=C(Nc1ccc(-c2nc(-c3ccccc3)co2)cc1)C1CCCCC1 | 1210 s |
| Cc1cc(-c2nnc(-c3ccc(F)cc3)o2)c(C)n1CC(=O)Nc1ccc2c(c1)OCO2 | 938 s |
| CCc1nn2c(CNC(=O)c3ccc(F)c(F)c3)c(-c3ccccc3)nc2s1 | 661 s |
| CCn1c(CCNC(=O)c2ccc3c(c2)OCO3)nc2cccnc21 | 599 s |
| Nc1ccc(/C=C/c2ccc3ncccc3c2)cc1 | 643 s |
| Cn1c(=O)n(C)c2cc(Sc3ccccc3)c(NC(=O)C3CC3)cc21 | 849 s |
| Cc1ccc2c(c1)NC(=O)C(CC(=O)N1CCN(c3cccc(C)c3C)CC1)CO2 (stereo not drawn) | 781 s |
| NC(=O)c1c(NC(=O)C2CCCN(C(=O)c3ccc4c(c3)OCCO4)C2)sc2c1CCCC2 (stereo not drawn) | 839 s |
| Cc1ccc(NC(=O)CN2C(=O)CCCc3cc(S(=O)(=O)N4CCCC4)ccc32)cc1Cl | 943 s |
| CCc1cccc(NC(=O)Cn2nc(N3CCSCC3)c3ccccc3c2=O)c1 | 940 s |
| CCn1c(=O)c(N2CCCC(C(=O)NCc3cccc(Br)c3)C2)nc2ccccc21 (stereo not drawn) | 1080 s |
| Cc1nnc(-c2ccc3ccn(CC(=O)NCc4cccs4)c3c2)o1 | 729 s |
| C#CCn1cnc2c(oc3ccccc32)c1=O | 673 s |
| CSc1cccc(NC(=O)Cn2c(C)nc3c(c2=O)CN(Cc2ccccc2)CC3)c1 | 587 s |
| CN1CC(=O)N(CC(=O)N2CCN(c3cccc(Cl)c3)CC2)c2ccccc2C1=O | 747 s |
| CCn1cc(-c2nc(C)c(C(=O)N3CCN(c4ccccc4)CC3)s2)c2cccnc21 | 994 s |
| CNC(=O)c1ccc(-c2nc3cc(NS(=O)(=O)c4cc(Cl)ccc4OC)ccc3n2C)cc1 | 671 s |
| Cc1cc2n(n1)CCCN2C(=O)CCC(=O)NC1CCN(Cc2ccccc2)CC1 | 579 s |
| COc1ccc(CN2C(=O)COC[C@H]2C(=O)NCc2ccc(Cl)cc2)c(OC)c1 | 805 s |
| CCc1ccc(NC(=O)Cn2c(=O)n(-c3cccc(C)c3)c(=O)c3c2cc(C)n3C)cc1 | 645 s |
| COc1ccc(C(=O)N2CCCC2c2nc(-c3cccc(C)c3)no2)cn1 (stereo not drawn) | 947 s |
| COc1ccc(-c2csc(NC(=O)c3ccc(Br)s3)n2)cc1OC | 990 s |
| COCC(=O)N1CCC(Oc2nccnc2N2CCOCC2)C1 (stereo not drawn) | 584 s |

More lines, now with the values ahead:

| RP-LC retention time | Structure (SMILES) |
| --- | --- |
| 1200 s | COc1ccc(-c2csc(NC(=O)COc3ccc(Cl)c(Cl)c3)n2)cc1 |
| 928 s | CC(C)n1c(N2CCN(C(=O)COc3ccc(Cl)cc3)CC2)cc(=O)n(C(C)C)c1=O |
| 1180 s | COc1ccc(-c2ncc3c(n2)CCN(S(=O)(=O)c2cccc(Cl)c2C)C3)cc1 |
| 1080 s | CCOCCCNC(=O)C1CCCN(c2nc3ccccc3n(Cc3ccc(C)cc3)c2=O)C1 (stereo not drawn) |
| 731 s | COc1ccc(NC(=O)c2cnc(N3CCN(c4ccc(OC)cc4)CC3)nc2N)cc1 |
| 746 s | CCC(C)NC(=O)C1CCCN(c2nnc(C)c3c(C)n(-c4ccc(Cl)cc4)nc23)C1 (stereo not drawn) |
| 906 s | CC1(C)Cc2cccc(OCC(=O)Nc3ncc([N+](=O)[O-])s3)c2O1 |
| 1030 s | CSc1ccc(CNC(=O)CCCn2nc(-n3cccc3)c3c(C)cc(C)nc32)cc1 |
| 552 s | CCC(CO)NCC(O)COCc1ccc(Cl)cc1 (stereo not drawn) |
| 664 s | CN1CCN(C(=O)Cn2cccc2-c2nc(-c3ccccc3)cs2)CC1 |
| 1010 s | COc1ccccc1-c1coc2cc(OC(=O)c3cccc([N+](=O)[O-])c3)ccc2c1=O |
| 1030 s | Cc1ccc(-c2nc(C)cc(OCC(=O)Nc3ccccc3C)n2)cc1 |
| 975 s | CCn1c(=O)sc2cc(S(=O)(=O)N3CCC(C(=O)Nc4cccc(SC)c4)CC3)ccc21 |
| 793 s | O=C(c1ccc2[nH]ccc2c1)N1CCN(C(=O)c2nnn3c2COC(c2ccccc2)C3)CC1 (stereo not drawn) |
| 1040 s | CCC(c1cccs1)N1C(=O)[C@H]2CN(S(=O)(=O)c3cccc(C)c3)C[C@H]2C1=O (stereo partly drawn) |
| 747 s | Cc1cc2c(cc1S(=O)(=O)N1CCCC1C(=O)N1CCN(c3ccccc3)CC1)OCC(=O)N2 (stereo not drawn) |
| 1130 s | Cc1cc(S(=O)(=O)N2CCc3nc(-c4ccc(F)cc4)ncc3C2)ccc1F |

| RP-LC retention time | Structure (SMILES) |
| --- | --- |
| 812 s | CCc1ccc(-c2cc3c(=O)n(CC(=O)NCCCN4CCCC4=O)nc(C)n3n2)cc1 |
| 851 s | CCc1nnc(-c2ccc3ccn(CC(=O)NCc4ccccc4OC)c3c2)o1 |
| 1280 s | Cc1ccc(-c2noc(-c3ccccc3S(=O)(=O)N3CCC(C)CC3)n2)cc1 |
| 732 s | Cc1nc(C)c(C(=O)N2CCCC2c2nc(CCOCC3CC3)no2)s1 (stereo not drawn) |
| 911 s | COC(=O)Cn1nc2c(-c3nc(-c4ccc(Cl)cc4)no3)cccn2c1=O |
| 709 s | O=C(NCC1CC1)c1ccc(NC(=O)C2CCC2)cc1N1CCOCC1 |
| 1040 s | CCC(=O)n1nc(C)c(S(=O)(=O)N2CCCCC2)c1C |
| 675 s | CCCNC(=O)C1CCN(c2ccc(SCC(=O)Nc3cccc(C(=O)OCC)c3)nn2)CC1 |
| 983 s | CCCS(=O)(=O)c1nc2ccc(NS(=O)(=O)c3ccc(F)c(C)c3)cc2s1 |
| 855 s | Cc1ccc(S(=O)(=O)N2C(=O)CCC2C(=O)NC2CCCC2)cc1C (stereo not drawn) |
| 750 s | Cc1ccc(-n2nc(SC(C)C(=O)NC3CC3)ccc2=O)cc1Cl (stereo not drawn) |
| 876 s | CCOC(=O)CNC(=O)C1(C)Cn2c(ccc2-c2ccco2)C(=O)N1Cc1ccccc1Cl (stereo not drawn) |
| 816 s | N#Cc1nnn(-c2ccc(Cl)cc2)c1N |
| 1060 s | CCCCc1ccc(Nc2ncccc2S(N)(=O)=O)cc1 |
| 618 s | CNC(=O)c1cc(C(C)(C)C)[nH]n1 |
| 774 s | CCOC(=O)c1nc(NCc2ccccc2OC)c2ccccc2n1 |
